The numbers were not newly measured in patent publication US20140178367A1, “Methods of Treating Inflammatory Diseases by Targeting the Chemoattractant Cytokine Receptor 2 (CCR2) or Chemokine (C-C motif) Ligand 2 (CCL2)” (THE Brigham and Women's Hospital, Inc., priority 2011, published 2014), which cites them from elsewhere.

Structures are written as SMILES.

For this data set, the system named is patients with ALS.

As to `Nc1nc2ccc(OC(F)(F)F)cc2s1` [riluzole], the prolongs life entry was “only a few months”.
